Drawing on patent US20060100431A1, “Biologically active compounds” (Amura Therapeutics Limited, priority 2002, published 2006), this text covers Ki for 19 compounds.

One assay concerns the target T1, human cathepsin B (Homo sapiens, UniProt P07858).
T1 construct: purchased CN Biosciences
Description: Cathepsin B peptidase activity assay (Ki). It is filed as biochemical. To be noted: read-out: Ki, inhibitors of cathepsin B. The essentials: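 Buffer: 10 mM bis-tris-propane pH 6.5, 1 mM EDTA, 5 mM 2-mercaptoethanol, 1 mM CaCl2; DMSO <1%. Ki assumed reversible, pure-competitive, from Ki^app=Ki(1+[So]/KM^app) by non-linear regression.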

For another assay, the target named is T2, Bovine cathepsin S (Bos taurus, UniProt P25326).
T2 construct: purchased CN Biosciences
T2 sequence (P25326 115-331): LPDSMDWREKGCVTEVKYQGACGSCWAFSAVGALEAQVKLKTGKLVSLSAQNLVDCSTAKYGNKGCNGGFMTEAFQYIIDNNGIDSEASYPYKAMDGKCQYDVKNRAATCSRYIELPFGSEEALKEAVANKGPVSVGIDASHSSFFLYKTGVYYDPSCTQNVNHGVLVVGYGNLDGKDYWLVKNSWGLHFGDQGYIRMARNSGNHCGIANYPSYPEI
Description: Cathepsin S peptidase activity assay, bovine enzyme (Ki). It is filed as biochemical. The essentials:
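Bovine cathepsin S activity followed by fluorescence increase from substrate conversion to product over time, enzyme added to start the reaction, at 25±1° C. Buffer 10 mM bis-tris-propane pH 6.5 with 1 mM EDTA, 5 mM 2-mercaptoethanol, 1 mM CaCl2; DMSO kept below 1% (vol./vol.).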

Where [1] appears, read: Table 5, read-out: Ki Bovine Cathepsin S.
[2] abbreviates: species of cathepsin S not given, read-out: Ki, inhibitors of cathepsin S.

SMILES strings stand for the structures. Read-outs that look alike come from different tables or passages of the source. A value given as a limit tells only on which side of the number the result lay.

In the case of `CC(C)C[C@H](NC(=O)c1ccc(-c2cccs2)cc1)C(=O)N1CC[C@@H]2[C@H]1C(=O)CN2C(=O)c1ccccc1` [Example 2, (3aR,6aS)-N-[(1S)-1-(4-Benzoyl-6-oxo-hexahydro-pyrrolo[3,2-b]pyrrole-1-carbonyl)-3-methyl-butyl]-4-thiophen-2-yl-benzamide], the Ki on human cathepsin B was < 5 µM; at Bovine cathepsin S (setting [1]), > 1 µM.
As to `CC(C)C[C@H](NC(=O)c1cc2ccccc2s1)C(=O)N1CC[C@@H]2[C@H]1C(=O)CN2C(=O)c1ccccc1` [Example 7, (3aR,6aS)-Benzo[b]thiophene-2-carboxylic acid [(1S)-1-(4-benzoyl-6-oxo-hexahydro-pyrrolo[3,2-b]pyrrole-1-carbonyl)-3-methyl-butyl]-amide], the Ki at human cathepsin B and on Bovine cathepsin S (setting [2]) was < 5 µM each time.
In the case of `CC(C)C[C@H](NC(=O)c1ccc(N(C)C)cc1)C(=O)N1CC[C@@H]2[C@H]1C(=O)CN2C(=O)c1ccccc1` [Example 14, (3aR,6aS)-N-[(1S)-1-(4-Benzoyl-6-oxo-hexahydro-pyrrolo[3,2-b]pyrrole-1-carbonyl)-3-methyl-butyl]-4-dimethylamino-benzamide], the Ki on human cathepsin B and on Bovine cathepsin S (setting [2]) was < 5 µM throughout.
As for `CC(C)C[C@H](NC(=O)c1cccc(N(C)C)c1)C(=O)N1CC[C@@H]2[C@H]1C(=O)CN2C(=O)c1cccc(S(C)(=O)=O)c1` [Example 59, (3aR,6aS)-3-Dimethylamino-N-{(1S)-1-[4-(3-methanesulfonyl-benzoyl)-6-oxo-hexahydro-pyrrolo[3,2-b]pyrrole-1-carbonyl]-3-methyl-butyl}-benzamide], the inhibitory constant (Ki) on human cathepsin B and on Bovine cathepsin S (setting [2]) was < 5 µM in each case.
With `CC(C)C[C@H](NC(=O)c1ccc2c(c1)CCCN2)C(=O)N1CC[C@@H]2[C@H]1C(=O)CN2C(=O)c1ccccc1` [Example 87, (3aR,6aS)-1,2,3,4-Tetrahydro-quinoline-6-carboxylic acid [(1S)-1-(4-benzoyl-6-oxo-hexahydro-pyrrolo[3,2-b]pyrrole-1-carbonyl)-3-methyl-butyl]-amide], the Ki at human cathepsin B and on Bovine cathepsin S (setting [2]) was < 5 µM in each case.
With `CC(C)C[C@H](NC(=O)c1ccc2ncsc2c1)C(=O)N1CC[C@@H]2[C@H]1C(=O)CN2C(=O)c1ccccc1` [Example 90, (3aR,6aS)-Benzothiazole-6-carboxylic acid [(1S)-1-(4-benzoyl-6-oxo-hexahydro-pyrrolo[3,2-b]pyrrole-1-carbonyl)-3-methyl-butyl]-amide], the Ki on human cathepsin B and on Bovine cathepsin S (setting [2]) was < 5 µM in each case.
With `CC(C)C[C@H](NC(=O)c1ccc(-n2cccn2)cc1)C(=O)N1CC[C@@H]2[C@H]1C(=O)CN2C(=O)c1ccccc1` [Example 91, (3aR,6aS)-N-[(1S)-1-(4-Benzoyl-6-oxo-hexahydro-pyrrolo[3,2-b]pyrrole-1-carbonyl)-3-methyl-butyl]-4-pyrazol-1-yl-benzamide], the Ki on human cathepsin B and on Bovine cathepsin S (setting [2]) was < 5 µM throughout.
As for `CC(C)C[C@H](NC(=O)c1ccc(N(C)C)cc1)C(=O)N1CC[C@@H]2[C@H]1C(=O)CN2C(=O)c1csc2ccccc12` [Example 103, (3aR,6aS)-N-{(1S)-1-[4-(Benzo[b]thiophene-3-carbonyl)-6-oxo-hexahydro-pyrrolo[3,2-b]pyrrole-1-carbonyl]-3-methyl-butyl}-4-dimethylamino-benzamide], the Ki on human cathepsin B and on Bovine cathepsin S (setting [2]) was < 5 µM in each case.
Regarding `CC(=O)N[C@@H](CC(C)C)C(=O)N1CC(=O)[C@@H]2[C@H]1CCN2C(=O)[C@H](CC(C)C)NC(=O)c1ccc(N(C)C)cc1` [Example 151, (3aR,6aS)-N-{(1S)-1-[4-((2S)-2-Acetylamino-4-methyl-pentanoyl)-6-oxo-hexahydro-pyrrolo[3,2-b]pyrrole-1-carbonyl]-3-methyl-butyl}-4-dimethylamino-benzamide], the Ki at human cathepsin B and at Bovine cathepsin S (setting [2]) was < 5 µM in each case.
In the case of `CC(C)C[C@H](NC(=O)c1ccc(N(C)C)cc1)C(=O)N1CC[C@@H]2[C@H]1C(=O)CN2C(=O)[C@@H](NC(=O)OCc1ccccc1)C(C)C` [Example 158, (3aS,6aR)-((S)-1-{4-[(2S)-2-(4-Dimethylamino-benzoylamino)-4-methyl-pentanoyl]-3-oxo-hexahydro-pyrrolo[3,2-b]pyrrole-1-carbonyl}-2-methyl-propyl)-carbamic acid benzyl ester], the Ki on human cathepsin B and at Bovine cathepsin S (setting [2]) was < 5 µM in each case.
On to `CC(C)C[C@H](NC(=O)c1ccc(OC(F)(F)F)cc1)C(=O)N1CC[C@@H]2[C@H]1C(=O)CN2C(=O)c1ccccc1` [Example 173, (3aR,6aS)-N-[(1S)-1-(4-Benzoyl-6-oxo-hexahydro-pyrrolo[3,2-b]pyrrole-1-carbonyl)-3-methyl-butyl]-4-trifluoromethoxy-benzamide], for which the Ki at human cathepsin B and at Bovine cathepsin S (setting [2]) was < 5 µM each time.
In the case of `CC(C)C[C@H](NC(=O)c1ccc(N2CCNCC2)cc1)C(=O)N1CC[C@@H]2[C@H]1C(=O)CN2C(=O)c1ccccc1` [Example 194, (3aR,6aS)-N-[(1S)-1-(4-Benzoyl-6-oxo-hexahydro-pyrrolo[3,2-b]pyrrole-1-carbonyl)-3-methyl-butyl]-4-piperazin-1-yl-benzamide], the Ki at human cathepsin B and on Bovine cathepsin S (setting [2]) was < 5 µM throughout.
For the compound `CC(C)C[C@H](NC(=O)c1cccc(N2CCNCC2)c1)C(=O)N1CC[C@@H]2[C@H]1C(=O)CN2C(=O)c1ccccc1` [Example 247, (3aR,6aS)-N-[(1S)-1-(4-Benzoyl-6-oxo-hexahydro-pyrrolo[3,2-b]pyrrole-1-carbonyl)-3-methyl-butyl]-3-piperazin-1-yl-benzamide], the Ki at human cathepsin B and on Bovine cathepsin S (setting [2]) was < 5 µM each time.
With `CC(C)C[C@H](NC(=O)c1ccc(C(C)(C)C)cc1)C(=O)N1NC[C@@H]2[C@H]1C(=O)CN2C(=O)c1ccccc1` [Example 249a, (3aR,6aS)-N-[(1S)-1-(4-benzoyl-6-oxo-hexahydropyrrolo[3,2-c]pyrazole-1-carbonyl)-3-methylbutyl]-4-tert-butylbenzamide], the Ki on human cathepsin B and at Bovine cathepsin S (setting [2]) was < 5 µM in each case.
Take `CC(C)CC(NC(=O)c1ccc(N)cc1)C(=O)N1NC[C@@H]2[C@H]1C(=O)CN2C(=O)c1ccccc1` (stereo partly drawn) [Example 249b, (3aR,6aS)-4-amino-N-[1-(4-benzoyl-6-oxo-hexahydropyrrolo[3,2-c]pyrazole-1-carbonyl)-3-methylbutyl)benzamide]: the Ki on human cathepsin B and at Bovine cathepsin S (setting [2]) was < 5 µM each time.
On to `CC(C)C[C@H](NC(=O)c1ccc(N)cc1)C(=O)N1NC[C@@H]2[C@H]1C(=O)CN2C(=O)c1cccc(S(C)(=O)=O)c1` [Example 249c, (3aR,6aS)-4-amino-N-{(1S)-1-[4-(3-methanesulfonylbenzoyl)-6-oxo-hexahydropyrrolo [3,2-c]pyrazole-1-carbonyl]-3-methylbutyl}benzamide], for which the Ki on human cathepsin B and on Bovine cathepsin S (setting [2]) was < 5 µM throughout.
Turning to `O=C(N[C@@H](CC1CCCCC1)C(=O)N1CC[C@@H]2[C@H]1C(=O)CN2C(=O)c1ccccc1)c1ccsc1` [Example 250, (3aR,6aS)-Thiophene-3-carboxylic acid [(1S)-2-(4-benzoyl-6-oxo-hexahydro-pyrrolo[3,2-b]pyrrole-1-yl)-1-cyclohexylmethyl-2-oxo-ethyl]-amide], the Ki on Bovine cathepsin S (setting [1]) was < 0.1 µM.
With `O=C(N[C@@H](Cc1ccc(O)cc1)C(=O)N1CC[C@@H]2[C@H]1C(=O)CN2C(=O)c1ccccc1)c1cccc2ccccc12` [Example 296, (3aR,6aS)-Naphthalene-1-carboxylic acid [(1S)-2-(4-benzoyl-6-oxo-hexahydro-pyrrolo[3,2-b]pyrrole-1-yl)-1-(4-hydroxybenzyl)-2-oxo-ethyl]-amide], the figures for the Ki on human cathepsin B and at Bovine cathepsin S (setting [1]) were < 5 µM and > 5 µM, respectively.
As to `CC(C)(C)c1ccc(C(=O)N[C@@H](Cc2ccc(O)cc2)C(=O)N2CC[C@@H]3[C@H]2C(=O)CN3C(=O)c2ccccc2)cc1` [Example 346, (3aR,6aS)-N-[(1S)-2-(4-Benzoyl-6-oxo-hexahydro-pyrrolo[3,2-b]pyrrol-1-yl)-1-(4-hydroxybenzyl)-2-oxo-ethyl]-4-tert-butyl-benzamide], on Bovine cathepsin S (setting [1]), the Ki was > 10 µM.

For orientation: Ki means a measure of affinity in units of concentration, obtained from inhibition or displacement.
